Like-named read-outs stand apart in the source and are kept apart here. Numbered stars: 1 amine (or outer) side, 2 acyl side, 3 side chain; on linkers, the order of the positions; unused ones are H or OH. Bridge positions count the residues as written; N and C are the ends. Square brackets hold non-standard residues; d marks the D form. Peptide text beside a SMILES is read from it. * marks the point of attachment. Trp(βS-Me,7-OMe) = COc1cccc2c([C@H](C)[C@H](N)C(=O)O)c[nH]c12; Trp(1-CH2COOH) = N[C@@H](Cc1cn(CC(=O)O)c2ccccc12)C(=O)O; Phe(4-SO2NH2) = N[C@@H](Cc1ccc(S(N)(=O)=O)cc1)C(=O)O; dPro(trans-4-NMe2) = CN(C)[C@@H]1CN[C@@H](C(=O)O)C1; Trp(7-CN) = N#Cc1cccc2c(C[C@H](N)C(=O)O)c[nH]c12; Trp(7-Cl) = N[C@@H](Cc1c[nH]c2c(Cl)cccc12)C(=O)O; X20 = O=C1NCc2ccc(C[C@H](N[*:1])C(=O)[*:2])cc21; Phe(4-CONH2) = NC(=O)c1ccc(C[C@H](N)C(=O)O)cc1; Phe(4-COOH) = N[C@@H](Cc1ccc(C(=O)O)cc1)C(=O)O; 4Pal(3S-Me) = C[C@@H](c1ccncc1)[C@H](N)C(=O)O; X23 = N[C@@H]1CCN([*:1])[C@H](C(=O)[*:2])C1; Pip(5R-OH) = O=C(O)[C@@H]1CC[C@@H](O)CN1; X1 = O=C([C@@H]1CC[C@H](N[*:1])C1)[*:2]; Nle(5,5-F2) = CC(F)(F)CC[C@H](N)C(=O)O; Pip(4-aza) = O=C(O)[C@@H]1CNCCN1; 4Pal = N[C@@H](Cc1ccncc1)C(=O)O; NMeE = CN[C@@H](CCC(=O)O)C(=O)O; dHyp = O=C(O)[C@H]1C[C@H](O)CN1; Ahp(2) = CCCCC[C@H](N)C(=O)O; αMeS = C[C@](N)(CO)C(=O)O; Carboxymethyl = O=C(O)C*; Nle = CCCC[C@H](N)C(=O)O; Sar = CNCC(=O)O
Legend:
human TNFR2 ECD protein = target: T1, human TNFR2 ECD protein (Homo sapiens, UniProt P20333); assay: SPR off-target binding (selectivity) to human TNFR2 ECD
T1 construct: HRV 3C protease cleavage site (C); 6His (C, cleaved yes); made in house; host or cells: Sf21 insect cells (baculovirus), secreted
T1 sequence (P20333 23-257): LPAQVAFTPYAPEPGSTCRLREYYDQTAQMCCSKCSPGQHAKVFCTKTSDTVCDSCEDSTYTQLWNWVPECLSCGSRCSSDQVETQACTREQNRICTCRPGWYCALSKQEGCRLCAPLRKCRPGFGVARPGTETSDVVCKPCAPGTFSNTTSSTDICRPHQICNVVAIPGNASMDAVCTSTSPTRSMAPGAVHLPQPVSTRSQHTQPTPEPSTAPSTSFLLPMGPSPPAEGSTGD
Outline: (§1)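 Peptides are tested against captured biotin-tagged human TNFR1 ECD, with parallel TNFR2 ECD binding to check selectivity. Buffer: 10 mM HEPES pH 7.4, 150 mM NaCl, 3 mM EDTA, 0.05% P20, 2% DMSO.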

[1] = target: T2, TNFα-induced NF-κB signal transduction pathway (TNFR1 signaling) in THP-1 cells (Homo sapiens, UniProt P19438); assay: THP-1 Lucia NF-κB reporter cell assay, inhibition of TNFα-induced NF-κB signaling; format: cell-based; conditions: THP-1 NF-κB Lucia reporter cells, 10 ng/mL TNFα, 16-18 h, secreted luciferase; read-out: THP-1 IC50
T2 sequence (P19438 30-455): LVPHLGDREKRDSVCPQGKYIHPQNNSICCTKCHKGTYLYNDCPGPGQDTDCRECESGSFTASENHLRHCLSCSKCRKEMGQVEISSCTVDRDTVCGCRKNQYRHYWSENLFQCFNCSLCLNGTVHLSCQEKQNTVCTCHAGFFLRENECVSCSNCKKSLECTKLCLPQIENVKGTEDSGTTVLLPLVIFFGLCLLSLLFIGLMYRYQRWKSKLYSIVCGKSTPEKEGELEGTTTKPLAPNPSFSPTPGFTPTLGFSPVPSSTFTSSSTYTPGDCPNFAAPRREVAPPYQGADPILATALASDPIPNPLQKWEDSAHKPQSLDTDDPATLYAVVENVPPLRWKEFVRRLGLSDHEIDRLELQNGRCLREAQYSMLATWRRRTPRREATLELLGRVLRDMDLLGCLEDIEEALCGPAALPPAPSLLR
Outline: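 Macrocyclic peptides were preincubated 1 h at 37 °C with THP-1 NF-κB-Lucia reporter cells (20,000 cells/well) in antibiotic-free RPMI 1640/10% FBS, then stimulated with 10 ng/mL human TNFα overnight (16-18 h). Secreted luciferase in supernatant was read by luminescence; IC50 from 4-parameter logistic fits.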

[2] = target: T3, human TNFR1 extracellular domain (ECD) protein (Homo sapiens, UniProt P19438); assay: SPR binding affinity to captured human TNFR1 ECD
T3 construct: HRV 3C protease cleavage site (C); 6His (C, cleaved yes); made in house; host or cells: Sf21 insect cells (baculovirus), secreted
T3 sequence (P19438 30-211): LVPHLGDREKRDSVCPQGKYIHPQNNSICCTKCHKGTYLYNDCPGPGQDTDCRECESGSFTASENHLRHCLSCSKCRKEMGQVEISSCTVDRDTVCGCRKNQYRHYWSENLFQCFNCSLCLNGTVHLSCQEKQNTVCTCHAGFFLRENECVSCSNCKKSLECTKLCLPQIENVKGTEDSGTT
Outline: as §1

Compound | Kd (human TNFR2 ECD protein) [nM] | IC50 [1] [nM] | Kd [2] [nM] | Kd (human TNFR2 ECD protein; biotinylated human TNFR2 ECD on streptavidin chip, read-out: SPR hTNFR2 KD) [nM] | Kd ([2]; biotinylated human TNFR1 ECD on streptavidin chip, from kon and koff, read-out: SPR hTNFR1 KD) [nM]
CCCCC[C@@H]1NC(=O)[C@@H]2CC[C@@H](C2)NC(=O)[C@H]([C@@H](C)c2c[nH]c3c(OC)cccc23)NC(=O)CN(C)C(=O)[C@H](Cc2ccc(C(N)=O)cc2)NC(=O)[C@H](Cc2ccc(C(N)=O)cc2)NC(=O)[C@](C)(CO)NC(=O)[C@H](Cc2c[nH]c3c(C#N)cccc23)NC(=O)[C@H](Cc2ccc(C(=O)O)cc2)NC(=O)[C@H](CC(N)=O)NC(=O)[C@H]2C[C@H](O)CN2C(=O)[C@H](Cc2c[nH]c3ccccc23)NC(=O)[C@H](CCC(N)=O)NC(=O)[C@H]([C@@H](C)c2ccncc2)NC1=O [SEQ ID NO. 70] (cyclo([Ahp(2)][4Pal(3S-Me)]QW[dHyp]N[Phe(4-COOH)][Trp(7-CN)][αMeS][Phe(4-CONH2)][Phe(4-CONH2)][Sar][Trp(βS-Me,7-OMe)][X1])) | > 1000 | 0.9 | 0.07 |  | 
CCCC[C@@H]1NC(=O)CSC[C@@H](C(N)=O)NC(=O)[C@H]([C@@H](C)c2c[nH]c3c(OC)cccc23)NC(=O)CN(C)C(=O)[C@H](Cc2ccc(O)cc2)NC(=O)[C@H](Cc2ccc(C(=O)O)cc2)NC(=O)[C@](C)(CO)NC(=O)[C@H](Cc2c[nH]c3c(Cl)cccc23)NC(=O)[C@H](Cc2ccncc2)NC(=O)[C@H](CC(N)=O)NC(=O)[C@H](CCC(=O)O)N(C)C(=O)[C@H](Cc2c[nH]c3ccccc23)NC(=O)[C@@H]2C[C@H](N)CCN2C(=O)[C@H](Cc2ccncc2)NC1=O [SEQ ID NO. 271] ({CH2CO}-[Nle][4Pal][X23]W[NMeE]N[4Pal][Trp(7-Cl)][αMeS][Phe(4-COOH)]Y[Sar][Trp(βS-Me,7-OMe)]C-NH2; thioether N-14) | > 1000 | 2.7 | 0.28 |  | 
COc1cccc2c([C@H](C)[C@@H]3NC(=O)CN(C)C(=O)[C@H](Cc4ccc(O)cc4)NC(=O)[C@H](Cc4ccc(C(=O)O)cc4)NC(=O)[C@](C)(CO)NC(=O)[C@H](Cc4c[nH]c5c(Cl)cccc45)NC(=O)[C@H](Cc4ccncc4)NC(=O)[C@H](CC(N)=O)NC(=O)[C@H](CCC(=O)O)N(C)C(=O)[C@H](Cc4c[nH]c5ccccc45)NC(=O)[C@@H]4CNCCN4C(=O)[C@H](Cc4ccncc4)NC(=O)[C@H](CCC(C)(F)F)NC(=O)[C@@H]4CC[C@@H](C4)NC3=O)c[nH]c12 [SEQ ID NO. 275] (cyclo([4Pal][Trp(7-Cl)][αMeS][Phe(4-COOH)]Y[Sar][Trp(βS-Me,7-OMe)][X1][Nle(5,5-F2)][4Pal][Pip(4-aza)]W[NMeE]N)) | > 1000 | 1.4 | 0.3 |  | 
CCCC[C@@H]1NC(=O)[C@@H]2CC[C@@H](C2)NC(=O)[C@H]([C@@H](C)c2c[nH]c3c(OC)cccc23)NC(=O)CN(C)C(=O)[C@H](Cc2ccc(C(N)=O)cc2)NC(=O)[C@H](Cc2ccc(C(N)=O)cc2)NC(=O)[C@](C)(CO)NC(=O)[C@H](Cc2c[nH]c3c(C#N)cccc23)NC(=O)[C@H](Cc2ccc3c(c2)C(=O)NC3)NC(=O)[C@H](CC(N)=O)NC(=O)[C@H]2C[C@H](OCC(=O)O)CN2C(=O)[C@H](Cc2cn(CC(=O)O)c3ccccc23)NC(=O)[C@@H]2CC[C@@H](O)CN2C(=O)[C@H](Cc2ccncc2)NC1=O [SEQ ID NO. 22] (cyclo([4Pal][Pip(5R-OH)][Trp(1-CH2COOH)][dHyp](Carboxymethyl)N[X20][Trp(7-CN)][αMeS][Phe(4-CONH2)][Phe(4-CONH2)][Sar][Trp(βS-Me,7-OMe)][X1][Nle])) |  | 0.6 |  | > 1000 | 0.09
CCCC[C@@H]1NC(=O)[C@@H]2CC[C@@H](C2)NC(=O)[C@H]([C@@H](C)c2c[nH]c3c(OC)cccc23)NC(=O)CN(C)C(=O)[C@H](Cc2ccc(C(N)=O)cc2)NC(=O)[C@H](Cc2ccc(S(N)(=O)=O)cc2)NC(=O)[C@](C)(CO)NC(=O)[C@H](Cc2c[nH]c3c(C#N)cccc23)NC(=O)[C@H](Cc2ccc(C(=O)O)cc2)NC(=O)[C@H](CC(N)=O)NC(=O)[C@H]2C[C@H](N(C)C)CN2C(=O)[C@H](Cc2cn(CC(=O)O)c3ccccc23)NC(=O)[C@@H]2CC[C@@H](O)CN2C(=O)[C@H](Cc2ccncc2)NC1=O [SEQ ID NO. 2] (cyclo([4Pal][Pip(5R-OH)][Trp(1-CH2COOH)][dPro(trans-4-NMe2)]N[Phe(4-COOH)][Trp(7-CN)][αMeS][Phe(4-SO2NH2)][Phe(4-CONH2)][Sar][Trp(βS-Me,7-OMe)][X1][Nle])) | > 1000 | 0.5 | 0.07 |  | 

— US20240287138A1, “CYCLIC PEPTIDES FOR INHIBITING TNF RECEPTOR 1 ACTIVITY” (Merck Sharp & Dohme LLC, priority 2023, published 2024)
